The values that follow come from patent US20260232745A1, “INHIBITION OF METHANE PRODUCTION IN RUMINANTS” (Loam Bio Pty Ltd, priority 2023, published 2026).

For series [1], the system named is VHPO expressed in Curvularia sp. 4388 (SEQ ID NO: 2). As to the kind of experiment: Enzyme reaction via VHPO mediated pathway, bromoform by GCMS. In kind it is biochemical. The following applies: VHPO (Curvularia sp. AU-4388 supernatant), KBr, H2O2, vanadate, 24 hours at room temperature.
Series [2] deals with methyl-coenzyme M reductase (MCR). To be noted: background; cited from earlier work.
The test system of series [3] is Curvularia sp. 4388 (NMI Accession No. V22/011149) VHPO, purified, SEQ ID NO: 2. To be noted: MCD assay; for Km: pH 5.5, 25° C.
Description: (§1) Kinetic parameters of VHPOs were determined using the monochlorodimedone (MCD) (2-chloro-5,5-dimethyl-1,3-dimedon) assay. The assay was carried out in a 200 μL reaction volume using Greiner UV-Star® 96 well plates. MCD conversion was spectrophotometrically monitored at 290 nm (F=20/mM·cm) using a CLARIOstar® Plus microplate reader (BMG labtech, Germany) at 25° C. […] The buffers were acetate buffer for pH 4-5.5, MES buffer for pH 6 and 6.5, and HEPES buffer for pH 7-8. The MCD mixture was prepared and aliquoted to 96-well plates, followed by enzyme addition (10 μL of appropriate dilution). […] Stock solutions were prepared in advance for KBr (0.25M), Na3VO4 (25 mM), MCD (0.5 mM, adjusted pH to 6), and buffers (1M).
(§2) The absorbance values were plotted against time. For each curve, the slope of linear regression was determined as the initial velocity (Abs/min) of the enzyme activity.
(§3) The following enzyme concentrations were used in the MCD assay: • For Curvularia sp.
For series [4], the system named is Curvularia sp. 4388 (NMI Accession No. V22/011149) VHPO, culture supernatant. The following applies: MCD assay; for Km: pH 5.5, 25° C.
Description: as §1, §2
Series [5] relates to Curvularia protuberata US-1111 (ATCC PTA-127607) VHPO, purified, SEQ ID NO: 7. The following applies: MCD assay; for Km: pH 5.5, 25° C.
Description: as §1, §2, §3
Series [6] has as its system Curvularia spicifera US-188 (ATCC PTA-127510) VHPO, purified, SEQ ID NO: 3. The following applies: MCD assay; for Ki: pH 6.5, substrate inhibition model; for Km: pH 6.5, 25° C.
Description: as §1, §2, §3
The test system of series [7] is Curvularia pseudobrachyspora US-215 (ATCC PTA-127509) VHPO, purified, SEQ ID NO: 5. To be noted: MCD assay; for Ki: pH 5.5, substrate inhibition model; for Km: pH 5.5, 25° C.
Description: as §1, §2, §3
For the next series, the system named is methane production. The following applies: among the antimethanogenic compounds found in A. taxiformis; cited from earlier work.
Series [8] is described as follows: MCD assay, pH profile of VHPO activity. Format: biochemical. The following applies: for Optimal pH: first value of the cell: pH at which the kinetic parameters were determined; for optimal pH of enzyme activity: typical MCD assay, 25° C., value in brackets in Table 8, footnotes and text.
[9] abbreviates: pH 5.5, final 200-fold dilution.
Where [10] appears, read: read-out: KI (Br-), pH 5.5, substrate inhibition model.
Setting [11] is: pH 5.5, final 20-fold dilution of supernatant.
The mark [12] stands for this setting: read-out: KM (H2O2), H2O2 varied.

Like-named read-outs stand apart in the source and are kept apart here.

On to `CC1(C)CC(=O)CC(=O)C1` [dimedone], for which the “GCMS peak for bromoform” value in series [1] is reported as “significant peak”.

For the molecule `BrC(Br)Br` [bromoform], the “inhibition of methyl-coenzyme M reductase (MCR)” value in series [2] is “competitive inhibitor”.

What is called Km is the substrate concentration at which the rate is half of its maximum. Consider `[Br-].[K+]` [Br-, bromide], for which the “Vmax (Br-)” value in series [3] (setting [9]) is 0.395 [Abs/min]; in series [4] (setting [11]), 0.964 [Abs/min]; in [5] (pH 5.5, final 20-fold dilution) it was 0.0083 [Abs/min]; in [6] (pH 6.5, final 20-fold dilution), 0.356[Abs/min]; in series [7] (pH 5.5, final 20-fold dilution) it was 0.039 [Abs/min]. For the same molecule, the Ki in series [3] (setting [10]) stood at 2.9 mM; in series [4] (setting [10]), 1.33 mM; in series [5] (setting [10]) it was 33.6 mM; in series [6] (read-out: KI (Br-)) it was 17.5 mM; in series [7] (read-out: KI (Br-)), 9.35 mM. Moreover, the Km is 68 µM in series [3] (read-out: KM (Br-), KBr varied); 155 µM in series [4] (read-out: KM (Br-), KBr varied); 38.7 µM in [5] (read-out: KM (Br-), KBr varied); 125 µM in [6] (read-out: KM (Br-), KBr varied); 0.073 mM in series [7] (read-out: KM (Br-), KBr varied).

For the molecule `BrC(Br)Br` [Bromoform, bromoform], in the series on methane production, the “activity at inhibiting methane production” value was “highest activity”.

For the molecule `ClC(Br)Br` [dibromochloromethane], the “activity at inhibiting methane production” value with methane production was “highest activity”.

Regarding `OO` [H2O2, hydrogen peroxide], the “Vmax (H2O2)” value in series [3] (setting [9]) was 0.378 [Abs/min]; in series [4] (setting [11]) it was 0.466 [Abs/min]; in series [5] (pH 5.5, final 20-fold dilution), 0.0103 [Abs/min]; in series [6] (pH 6.5, final 20-fold dilution), 0.357 [Abs/min]; in series [7] (pH 5.5, final 20-fold dilution), 0.123 [Abs/min]. Besides, the Km worked out at 645 µM in [3] (setting [12]); 297 µM in series [4] (setting [12]); 611 µM in series [5] (setting [12]); 400 µM in series [6] (setting [12]); 3.3 mM in series [7] (setting [12]). The Ki in [6] (read-out: KI (H2O2)) amounted to 2.76 mM; in [7] (read-out: KI (H2O2)), 31.3 mM.

B1: Purified VHPO (SEQ ID NO: 2): VHPO of Curvularia sp. 4388, reference VHPO; purified from recombinant P. pastoris (protein)
chain: MGSITPIPLPKIDEPEEYNTNYILFWNHVGLELNRVTHTVGGPLTGPPLSARALGMLHLAIHDAYFSIYPPTDFSTFLSPNAENAAYRLPSPNGANDARQAVAGAALKMLTSLYMKPVETPNPNPGANISDNAYAQLALVIDRSVLKAPGGVDRESASFMFGETVADVFFALLNDPRGASQEGYHPTPGRYKFDDEPTHPVVLIPVDPNNPNGPKKPFRQYHAPFYGKTTKRFATQSEHFLADPPGLRSNADETAEYDDAIRVAIAMGGAQALNSTKRSPWQTAQGLFWAYDGSNLIGTPPRFYNQIVRRIAVTYKKEEDLANSEVNNADFARLFALVDVACTDAGIFSWKEKWEYEFWRPLSGVRDDGRPDHGDPFWLTLGAPATNTNDIPFKPPFPAYPSGHATFGGAVFQMVRRYYNGRVGTWKDDEPDNIAIDMMISEELNGLNRDLRQPYDPTAPIEDQPGIVRTRIVRHFDSAWELMFENAISRIFLGVHWRFDAAAARDILIPTTTKDVYAVDNNGATVFQNVEDIRYTTKGTREDREGLFPIGGVPLGIEIADEIFNNGLKPTPPELQPMPQQTPVQKPVGQQPVQGMWAEEQAPVIKEAP
Take B1: in [8], the “Optimal pH” value was “pH 5.5” and the “optimal pH of enzyme activity” value amounted to 5.5.

B2: Purified VHPO (SEQ ID NO: 5): VHPO of Curvularia pseudobrachyspora US-215; purified from recombinant P. pastoris (protein)
chain: MGSVIPIPLPKIDEPEEYNTNYVLFWNNVGLELNRVTHTVGGPLTGPPLSARALGMLHLAIHDAYFSIYPPTDFTTFLSPDAENAAYRLPSLNGANDARQAVAGAALKMLSSLYMKPDSSSGGSISDNAYAQLALVIDRSVLKAPGGVDRESASFVFGEAVADVFFALLNDPRGASQEGYHPTPGRYKFDDEPTHPVVLVPVDPNNPNGPKKPFRQYHAPFYGKTTKRFATQTEHFLADPPGLRSNADETAEYDDSIRVAVAMGGAQGLNSTKRSPWQTAQGLFWAYDGSNLVGTPPRFYNQIVRRIAVTYKKEEDLANSEVNNADFARLFALVDVACTDAGIFSWKEKWEYEFWRPLSGVRDDGRPDHGDPFWLTLGAPATNTNDIPFKPPFPAYPSGHATFGGAVFQMVRRYYNGRVGTWKDDEPDNIAIDMVISEELNGLNRDLRQPYDPTAPIEDQPGIVRTRIVRHFDSAWEMMFENAISRIFLGVHWRFDAAAARDILIPTTTKDVYAVDNNGATVFQNVEDIRYSTKGTREDREGLFPIGGVPLGIEIADEIFNNGLRPTPPELQPMPQETPVQKPIGQQLVQGLWHDEEGQVPVVKEAP
As for B2, in series [8], the “Optimal pH” value is listed as “pH 5.5” and the “optimal pH of enzyme activity” value is 5.5.

B3: Purified VHPO (SEQ ID NO: 3): VHPO of Curvularia spicifera US-188; purified from recombinant P. pastoris (protein)
chain: MGSVTPIPIPRIDEPEEYNTNYILFWNHVGLELNRITHTVGGPLTGPPLSARALGMLHLAIHDAYFSICPPSDFTTFLSPDAENVAYRLPSLNGADDARQAVAGAALKMLSLLYMKPVEQPNPNPGANISDNAYAQLGLVLDRSVLKAPGGVDQESASFMFGEAVADVFFALLNDPRGASQEGYHPTLGRYKFDDEPTHPVVLIPVDPNNPNGPKKPFRQYHAPFYGKTTKRFATQSEHFLADPPGLRSNADETAEYDDSIRVAIAMGGAQGLNSTKRSPWQTAQGLYWAYDGSNLIGTPPRFYNQIVRRIAVTYKKEEDLANSEVNNADFARLFALVNVACTDAGIFSWKEKWEFEFWRPLSGVRDDGRPDHGDPFWLTLGAPATNTNDIPFKPPFPAYPSGHATFGGAVFQMVRRYYNGRVGTWKDDEPDNIAIDMMISEELNGLNRDLRQPYDPTAPIEDQPGIVRTRIVRHFDSAWEMMFENAISRIFLGVHWRFDAAAARDILIPTTTKDVYAVDNNGATVFQNVEDVRYSTKGTREGREGLFPIGGVPLGIEIADEIFNNGLRPTPPELQPMPQETPVQKPVEGMWEEEQAPIVNEAP
For B3, in series [8], the “Optimal pH” value is listed as 6.5 and the “optimal pH of enzyme activity” value stood at 7.

B4: Purified VHPO (SEQ ID NO: 7): VHPO of Curvularia protuberata US-1111; purified from recombinant P. pastoris (protein)
chain: MGSVTPIPLPKIDEPEEYNTNYILFWNYVGLELNRVTHTVGGPLTGPPLSARALGMLHLAVHDAYFSICPPTDFTTFLSPDAENAAYRLPSTNGANDARQAVAGAALKMLTSLYMKPIEQPNPNPSANISDNAYAQLALVLDRSAMEAPGGIDRESASFMFGEAVADVFFALLNDPRGASQEGYHPTPGRYKFDDEPTHPVVLIPVDPNNPNGPKKPFRQYHAPFYGKTTKRFATQSEHFLADPPGLRSNADETAEYDDAIRVAIAMGGAQALNSTKRSPWQTAQGLYWAYDGSNLIGTPPRFYNQIVRRIAVTYKKEEDIANSEVNNADFARLFALVDVACTDAGIFSWKEKWEFEFWRPLSGVRDDGRPDHGDPFWLTLGAPATNTNDIPFKPPFPAYPSGHATFGGAVFQMVRRYYNGRVGTWKDDEPDNIAIDMMISEELNGLNRDLRQPYDPTAPIEDQPGIVRTRIVRHFDSAWELMFENAISRIFLGVHWRFDAAAARDILIPTTTKDVYAVDNNGATVFQNVEDIRYTTKGTREDREGLFPIGGVPLGIEIANEIFENGLKPTPPEIQPMPQETPAQKPVKGMWQEEQVPVVEEAP
As for B4, in [8], the “Optimal pH” value amounted to 5.5 and the “optimal pH of enzyme activity” value worked out at 5. In series [8] (listed as SEQ ID NO: 7), the “optimal pH of enzyme activity” value came to 5.
